Assay results published in patent EP0406992A2, “New non-ionic carboxamide contrast agent” (SCHERING AKTIENGESELLSCHAFT, priority 1989, dated 1991).
Like-named read-outs stand apart in the source and are kept apart here. Marks after values point to notes of the source that are not given here.

Key:
männl. Ratte 80-100 g = conditions: male rat 80-100 g, approximate range
männl. Maus 16-20 g = conditions: male mouse 16-20 g, approximate range
[1] = Osmolality of contrast agent solutions; type: physicochemical; conditions: for Osmolalität von 300 mg I/ml Lösungen wäßrige Lösung: aqueous solution; for Osmolalität von 300 mg I/ml Lösungen pharmazeutisch formul. Lösung: pharmaceutically formulated solution
[2] = values marked * (Laut Literaturangabe); cited from earlier work
[3] = Viscosity of contrast agent solutions at 37 °C; type: physicochemical; conditions: for Viskosität von 300 mg I/ml bei 37 °C: pharmaceutically formulated solution, determined in applicant's laboratory

Structure (SMILES)	Näherungsbereich i.v. LD₅₀ männl. Ratte 80-100 g (männl. Ratte 80-100 g)	Näherungsbereich i.v. LD₅₀ männl. Maus 16-20 g (männl. Maus 16-20 g)	Osmolalität von 300 mg I/ml Lösungen wäßrige Lösung [1] [mOsm]	Osmolalität von 300 mg I/ml Lösungen pharmazeutisch formul. Lösung [1] [mOsm]	Viskosität von 300 mg I/ml bei 37 °C [3]	other results
CC(=O)N(CC(O)CO)c1c(I)c(C(=O)NCC(O)CO)c(I)c(C(=O)NCC(O)CO)c1I (centres unmarked) [Iohexol]	11,5-12,5 g I/kg	16-17 g I/kg	–	–	–	–
C[C@H](O)C(=O)Nc1c(I)c(C(=O)NC(CO)CO)c(I)c(C(=O)NC(CO)CO)c1I [Iopamidol]	12-13 g I/kg	16-18 g I/kg	671	704	–	Viskosität von 300 mg I/ml bei 37 °C [2]: 4,7* cps
COCC(=O)Nc1c(I)c(C(=O)NCC(O)CO)c(I)c(C(=O)N(C)CC(O)CO)c1I (centres unmarked) [Iopromid]	11-12 g I/kg	14-16 g I/kg	607	630	–	Viskosität von 300 mg I/ml bei 37 °C [2]: 4,6* cps
CC(=O)N(CC(O)CO)c1c(I)c(C(=O)NCCO)c(I)c(C(=O)NCC(O)CO)c1I (centres unmarked) [Ioxilan, reference compound]	12-13 g I/kg	16-18 g I/kg	560	588	4,7 cps	–
CC(=O)N(CCO)c1c(I)c(C(N)=O)c(I)c(C(=O)NC(CO)C(O)CO)c1I (stereo not drawn) [Verbindung 11, 5-{N-(2-Hydroxyethylacetamido)}-2,4,6-triiod-3-{N-(1,3,4-trihydroxy-threo-but-2-yl)}carbamoyl-Benzamid]	15,5-17,5 g I/kg	15,5-16,5 g I/kg	300	326	4,2 cps	Osmolalität ([1]; injection solution 300 mg I/ml, CaNa2-EDTA 56 mg, Trinatriumcitrat 77 mg per 100 ml, pH 5,0 bis 6,0, autoclaved): 301 mOsm/kg; Osmolalität ([1]; injection solution 350 mg I/ml, CaNa2-EDTA 56 mg, Trinatriumcitrat 77 mg per 100 ml, pH 5,0 bis 6,0, autoclaved): 337 mOsm/kg; Osmolalität ([1]; injection solution 400 mg I/ml, CaNa2-EDTA 56 mg, Trinatriumcitrat 77 mg per 100 ml, pH 5,0 bis 6,0, autoclaved): 370 mOsm/kg; Viskosität bei 37 °C ([3]; injection solution 300 mg I/ml, CaNa2-EDTA 56 mg, Trinatriumcitrat 77 mg per 100 ml, pH 5,0 bis 6,0, 37 °C): 4,2 Centipoise; Viskosität bei 37 °C ([3]; injection solution 350 mg I/ml, CaNa2-EDTA 56 mg, Trinatriumcitrat 77 mg per 100 ml, pH 5,0 bis 6,0, 37 °C): 6,6 Centipoise; Viskosität bei 37 °C ([3]; injection solution 400 mg I/ml, CaNa2-EDTA 56 mg, Trinatriumcitrat 77 mg per 100 ml, pH 5,0 bis 6,0, 37 °C): 13,1 Centipoise
CC(=O)N(CC(O)CO)c1c(I)c(C(N)=O)c(I)c(C(=O)NCC(O)CO)c1I (centres unmarked) [Verbindung 19, 5-{N-(2,3-Dihydroxypropyl)acetamido}-2,4,6-triiod-3-{N-(2,3-dihydroxypropyl)}carbamoyl-Benzamid]	13-14 g I/kg	14-16 g I/kg	365	390	4,1 cps	Osmolalität ([1]; injection solution 300 mg I/ml, CaNa2-EDTA 10 mg, Tris 121 mg per 100 ml, pH 7,0, autoclaved): 399 mOsm/kg; Osmolalität ([1]; injection solution 350 mg I/ml, CaNa2-EDTA 10 mg, Tris 121 mg per 100 ml, pH 7,0, autoclaved): 473 mOsm/kg; Osmolalität ([1]; injection solution 400 mg I/ml, CaNa2-EDTA 10 mg, Tris 121 mg per 100 ml, pH 7,0, autoclaved): 510 mOsm/kg; Viskosität bei 37 °C ([3]; injection solution 300 mg I/ml, CaNa2-EDTA 10 mg, Tris 121 mg per 100 ml, pH 7,0, 37 °C): 4,1 Centipoise; Viskosität bei 37 °C ([3]; injection solution 350 mg I/ml, CaNa2-EDTA 10 mg, Tris 121 mg per 100 ml, pH 7,0, 37 °C): 6,6 Centipoise; Viskosität bei 37 °C ([3]; injection solution 400 mg I/ml, CaNa2-EDTA 10 mg, Tris 121 mg per 100 ml, pH 7,0, 37 °C): 10,6 Centipoise
CN(C(=O)CO)c1c(I)c(C(N)=O)c(I)c(C(=O)NC(CO)C(O)CO)c1I (stereo not drawn) [Verbindung 41, 5-{N-(Methyl)-2-hydroxyacetamido}-2,4,6-triiod-3-{N-(1,3,4-trihydroxy-threo-but-2-yl)}-carbamoyl-Benzamid]	15-17 g I/kg	16-17,5 g I/kg	314	322	3,5 cps	–
